Here are results for 34 molecules from patent US6905861B2, “D-aminoacylases, method for producing the same, and method for producing D-amino acids using the same” (Daicel Chemical Industries, Ltd., priority 1998, dated 2005).

Assay [1] concerns D-aminoacylase. The assay is described as follows: Effects of various metal salts and reagents on residual enzyme activity. It is filed as biochemical, Hypomyces mycophilus IFO 6785. The conditions noted are these: for effect on the enzyme (in words): summary of Tables 6 and 7; for Relative activity (%): pH 9.5.
Assay [2] concerns D-aminoacylase. The experiment in a line: Substrate specificity of purified D-aminoacylase (TNBS method). The settings on record: for percentage of the specific activity compared with that for N-acetyl-D-methionine taken as 100%, D-enantiomer / percentage of the specific activity compared with that for N-acetyl-D-methionine taken as 100%, L-enantiomer: 20 mM substrate, 50 mM Tris-HCl pH 7.5, 30° C., 20 min; for activity of the enzyme for the substrate (in words): summary of Table 5. It is filed as biochemical, Hypomyces mycophilus IFO 6785. The procedure:
The enzyme activity was assayed by determining the amount of amino acid produced using the TNBS method and the HPLC method. In the TMBS method, 100 mM Na2B4O7 (0.5 ml) was added to a sample solution containing amino acid (0.5 ml), 20 μl of 110 mM TNBS (trinitrobenzenesulfonic acid) was then added, and the resulting mixture was quickly stirred. After 5 min, 100 mM NaH2PO4 containing 1.5 mM Na2SO3 (2 ml) was added to the reaction mixture to terminate the color reaction, and the absorbance at 420 nm was measured. HPLC was performed by subjecting a sample solution containing amino acid to high-performance liquid chromatography using an ODS column (column, Wakosil II 5C18 (4.6 dia.×250 mm) (Wako Pure Chemical); eluent, CH3CN/50 mM KH2PO4. H3PO4 (pH 2.5)=2:8; detection, A280 nm; and flow rate, 1.0 ml/min). The retention times were 3.5 min for D-tryptophan and 9.8 min for N-acetyl-D-tryptophan. Using D-tryptophan as the assay standard, one unit (or U) of the enzyme was defined as the amount of the enzyme required to produce 1 μmol of D-tryptophan at 30° C. for 1 min.
Substrate specificity of the enzyme was expressed as the percentage of the specific activity compared with that for N-acetyl-D-methionine taken as 100%. N-chloroacetyl-D-phenylalanine, N-acetyl-D-valine, N-acetyl-D-phenylalanine, N-acetyl-D-tryptophan, N-acetyl-D-leucine, N-acetyl-L-valine, N-acetyl-L-phenylalanine, N-acetyl-L-tryptophan, and N-acetyl-L-leucine substrates were used for the comparison. The enzyme reaction was performed in 50 mM Tris-HCl (pH 7.5) containing 1 µl of the enzyme solution and 20 mM of each substrate (total volume 1.0 ml) at 30° C. for 20 min, and terminated by adding 0.5 ml of a TCA reaction terminating solution according to Tsai et al. (consisting of 110 mM trichloroacetic acid, 220 mM sodium acetate, and 330 mM acetic acid). The enzyme activity was assayed by the TNBS method as described in Example 4(2).

Assay [3] deals with D-aminoacylase (crude enzyme) of Auricularia auriculajudae IFO 5949. The experiment in a line: Crude enzyme activity for each N-Ac-D-amino acid substrate. It is filed as biochemical. The conditions noted are these: Auricularia auriculajudae IFO 5949 crude enzyme; 20 mM substrate, 1 mM CoCl2, 50 mM phosphate buffer pH 7.0. As for the experimental part:
(§1) Auricularia auriculajudae IFO 5949, Pythium aphanidermaatum IFO 7030, and Menisporopsis novaezelandiae IFO 9179 were each inoculated into sterilized media (100 ml each) (Czapek Dox Broth for IFO 5949, YM1 medium for IFO 7030, and POTATO DEXTROSE BROTH for IFO 9179) in 500-ml Erlenmeyer flasks. The fungi were cultured on a rotary shaker at 210 rpm at 24° C. for 7 days and collected by centrifugation using a […] centrifuge with a RPR10-2 rotor at 8,000 rpm (12,500×g) for 20 min. […] Disrupted cells thus obtained were centrifuged using a […] centrifuge with a RPR20-2 rotor at 17,500 rpm (38,000×g) for 30 min at 4° C. to obtain the supernatant as the crude enzyme. […] Figures in the table denote the amount (mM) of D-amino acids produced from the corresponding N-acetyl-D-amino acids. The D-aminoacylase activity was detected in all the strains tested, producing D-amino acid from the corresponding N-acetyl-D-amino acid.

Assay [4] has as its system D-aminoacylase (crude enzyme) of Menisporopsis novaezelandiae IFO 9179. Described as above. The conditions noted are these: Menisporopsis novaezelandiae IFO 9179 crude enzyme; 20 mM substrate, 1 mM CoCl2, 50 mM phosphate buffer pH 7.0. It is filed as biochemical. As for the experimental part: as §1
The mark [5] stands for this setting: compound 1 mM, kept at 40° C. for 30 min, residual activity, no addition = 100.
Setting [6] is: metal ion 1 mM, kept at 40° C. for 30 min, residual activity, no addition = 100.

For the molecule `[Hg+2]` [Hg^2+], the “effect on the enzyme (in words)” value in assay [1] is “inhibited”.
Take `O=S(=O)(F)Cc1ccccc1` [PMSF, phenyl methyl sulfonyl fluoride]: the “Relative activity (%)” value in assay [1] was 94.2%.
As to `CC(=O)N[C@H](CC(N)=O)C(=O)O` [N-acetyl-D-asparagine], the “percentage of the specific activity compared with that for N-acetyl-D-methionine taken as 100%, D-enantiomer” value (shortened to “percentage … as 100%, D-enantiomer”) in assay [2] stood at 0%.
With `O=S(=O)([O-])[O-].[Zn+2]` [ZnSO4], the “Relative activity (%)” value in assay [1] (setting [5]) is 11.6%.
`O=S(=O)([O-])[O-].[Cu+2]` [CuSO4]: the “Relative activity (%)” value in assay [1] (setting [5]) came to 20.4%.
Turning to `[Cl-].[Cl-].[Zn+2]` [ZnCl2], the “Relative activity (%)” value in assay [1] stood at 26.2%.
On to `[Cu+2]` [Cu^2+], for which the “effect on the enzyme (in words)” value in assay [1] was “inhibited”.
On to `[Cl][Hg][Cl]` [HgCl2], for which the “Relative activity (%)” value in assay [1] turned out to be 13.4%.
On to `CC(=O)N[C@@H](Cc1ccccc1)C(=O)O` [N-acetyl-L-phenylalanine], for which, in assay [2], the “percentage of the specific activity compared with that for N-acetyl-D-methionine taken as 100%, L-enantiomer” value (shortened to “percentage … as 100%, L-enantiomer”) was determined as 0% and the “activity of the enzyme for the substrate (in words)” value (from here on “activity of the enzyme”) is “inactive”.
Consider `c1cnc2c(c1)ccc1cccnc12` [o-Phenanthroline], for which the “Relative activity (%)” value in assay [1] (setting [5]) was determined as 78.8%.
Regarding `CCN1C(=O)C=CC1=O` [N-ethylmaleimide], in assay [1] (setting [5]), the “Relative activity (%)” value amounted to 15.2%.
Regarding `[Cl-].[Cl-].[Co+2]` [CoCl2], in assay [1], the “Relative activity (%)” value was determined as 63.1%.
Consider `CC(=O)N1CCC[C@@H]1C(=O)O` [N-acetyl-D-proline], for which the “percentage … as 100%, D-enantiomer” value in assay [2] came out at 0%.
For the molecule `CSCC[C@H](NC(C)=O)C(=O)O` [N-acetyl-L-methionine], in assay [2], the “percentage … as 100%, L-enantiomer” value turned out to be 0% and the “activity of the enzyme” value is “inactive”.
With `[Cl-].[Cl-].[Mg+2]` [MgCl2], in assay [1], the “Relative activity (%)” value came out at 98.0%.
`O=C(CCl)N[C@H](Cc1ccccc1)C(=O)O` [N-chloroacetyl-D-phenylalanine]: in assay [2], the “percentage … as 100%, D-enantiomer” value worked out at 708% and the “activity of the enzyme” value was “especially active”.
In the case of `[Cl][Mn][Cl]` [MnCl2], in assay [1] (setting [6]), the “Relative activity (%)” value came to 100%.
Turning to `[Co+2]` [Co^2+], the “effect on the enzyme (in words)” value in assay [1] is on record as “inhibited”.
Regarding `O=C(O)CN(CCOCCOCCN(CC(=O)O)CC(=O)O)CC(=O)O` [EGTA], the “Relative activity (%)” value in assay [1] (setting [5]) turned out to be 90.9%.
For `CC(=O)N[C@@H](CC(C)C)C(=O)O` [N-acetyl-L-leucine], in assay [2], the “percentage … as 100%, L-enantiomer” value is listed as 0% and the “activity of the enzyme” value was “inactive”.
For Penicillin, the “percentage … as 100%, D-enantiomer” value in assay [2] was 0%.
Consider `[Ca+2].[Cl-].[Cl-]` [CaCl2], for which the “Relative activity (%)” value in assay [1] (setting [6]) is 104%.
Regarding `CC(=O)N[C@H](C(=O)O)C(C)C` [N-acetyl-L-valine], in assay [2], the “percentage … as 100%, L-enantiomer” value was determined as 0% and the “activity of the enzyme” value is “inactive”.
As for `[Zn+2]` [Zn^2+], the “effect on the enzyme (in words)” value in assay [1] is on record as “inhibited”.
`O=C(N[C@H](Cc1ccccc1)C(=O)O)c1ccccc1` [N-benzoyl-D-phenylalanine]: the “percentage … as 100%, D-enantiomer” value in assay [2] is 0%.
With `[Cl][Ni][Cl]` [NiCl2], the “Relative activity (%)” value in assay [1] came out at 57.7%.
As to `CC(=O)N[C@@H](Cc1c[nH]c2ccccc12)C(=O)O` [N-acetyl-L-tryptophan], in assay [2], the “percentage … as 100%, L-enantiomer” value amounted to 0% and the “activity of the enzyme” value is “inactive”.
As to `[Cl-].[K+]` [KCl], in assay [1] (setting [6]), the “Relative activity (%)” value is 102%.
With `O=C(O)c1cc[c]([Hg][Cl])cc1` [P-Chloromercuribenzoic acid], in assay [1] (compound 0.5 mM, kept at 40° C. for 30 min, residual activity, no addition = 100), the “Relative activity (%)” value is 99.6%.
As for `CC[C@@H](C)[C@@H](NC(C)=O)C(=O)O` [N-acetyl-D-isoleucine], in assay [2], the “percentage … as 100%, D-enantiomer” value came to 0%.
For `NC(=O)CI` [Iodoacetamide], in assay [1], the “Relative activity (%)” value came out at 185% and the “effect on the enzyme (in words)” value is reported as “activated”.
On to `O=C(O)CN(CCN(CC(=O)O)CC(=O)O)CC(=O)O` [EDTA], for which the “Relative activity (%)” value in assay [1] (setting [5]) came out at 96.0%. Further, the “effect on the enzyme (in words)” value in assay [1] is on record as “not being inhibited”.
Take `CC(=O)N[C@H](CC(=O)O)C(=O)O` [N-Acetyl-D-aspartic acid]: the “amount of D-amino acids produced from the corresponding N-acetyl-D-amino acids” value in assay [3] came to 1.10 mM; in assay [4], 0.66 mM.
Consider `NO` [Hydroxylamine], for which the “Relative activity (%)” value in assay [1] (setting [5]) is on record as 96.2%.
